Test results published in patent US20220133672A1, “NOTCH INHIBITORS FOR THE TREATMENT OF VASCULAR MALFORMATIONS” (The University of North Carolina at Chapel Hill, priority 2018, published 2022).

What was measured:
[1] = test system: Notch target gene Hey1 in HUVEC; assay: Quantitative RT-PCR of Notch target gene Hey1 in HUVEC; assay type: cell-based, human; conditions: 24 hrs post treatment
Experimental: RNA was extracted from cultured HUVEC or hLEC cells either 24 hrs or 72 hrs post treatment respectively using TRIzol reagent (Ambion 15596026) followed by DNase (Promega M6101) treatment and cDNA prepared using iScript (BioRad 170-8890). Quantitative RT-PCR was done on StepOnePlus (ABI) using TaqMan Gene Expression Master Mix (ThermoFisher Scientific 4369016). Gene expression was assessed using human Single-tube assays (Thermo Fisher Scientific/Applied Biosystems): GAPDH (4310884E), ACTB (Hs99999903_m1) and HEY1 (Hs01114113_m1). Comparative ΔΔCT method was used to analyze relative gene expression with ExpressionSuite Software (Thermo Fisher Scientific). Expression was normalized to housekeeping controls GAPDH and ACTB.

[2] = test system: HUVEC tube/network formation; assay: Tube formation assay in Matrigel matrix, HUVEC; assay type: cell-based, human; conditions: for inhibition of angiogenesis in Notch-expressing HUVECs / number of branch points per field: HUVEC; for number of branch points per field: all concentrations (2-20 μM); for network formation by HUVEC: lowest concentration (2 μM), 24 hrs
Experimental: Tube formation assay—This assay was performed based on the protocol by Arnaoutova and Kleinman, 2010^37.

HUVEC migration = assay: Scratch migration assay, HUVEC; assay type: cell-based, human
Experimental: (§1) Scratch migration assay—Migration assay was performed as per Liang et al., 2007^36, HUVECs and hLECs were grown to confluence in 24 well dishes, and then scratched with a 200 μL pipette tip. […] Four fields per well were imaged at T=0 hrs and at T=24 hrs post-scratch or T=72 hrs for HUVECs and hLECs respectively using an Olympus IX-81 inverted microscope equipped with a QImaging Retiga 4000R camera at 4× magnification. The percent change in migration was calculated by measuring the open area of the scratch at the above mentioned time-points (ImageJ). Results shown are representative of four independent experiments with HUVECs and three for hLECs.

[3] = test system: human lymphatic endothelial cells (hLECs); assay: Cell viability (trypan blue, Countess automated cell counter), hLEC; assay type: cell-based; conditions: for change of hLEC viability at concentrations less than 20 μM: concentrations lower than 20 μM, vs untreated controls
Experimental: (§2) Dermal human lymphatic endothelial cells (hLECs) from human neonates (HMVEC-dLyNeo-Der, Lonza CC-2812) and human umbilical venous endothelial cells (HUVEC, Lonza CC-2517) were used for in vitro assays (below) within 8 passages and maintained in EGM-2MV bullet kit (Lonza CC3202) and EGM bullet kit media respectively.
(§3) Cell viability: To examine the effect of GSI on cell viability, hLEC and HUVEC cultures were incubated with effects of graded concentrations [2, 4, 6, 8, 10, 20 μM] of DAPT (Selleckchem, S2215) or RO4909297 (Selleckchem, S1575) [2-20 μM] for 24-72 hours. The percentage of viable cells was determined using the Countess automated cell counter (Thermofisher, C10227). Briefly, 80-90% confluent HUVEC and hLEC cultures were trypsinized, washed, and 10 μL of cell sample was mixed with an equal amount of 0.4% trypan blue stain and loaded onto the counting chamber.

[4] = as above; assay type: cell-based, human; conditions: human; 20 μM, hLEC; read-out: reduction of hLEC viability
Experimental: as §2, §3

hLEC migration = assay: Scratch migration assay, hLEC; assay type: cell-based, human
Experimental: as §1

CC(C)(C(=O)NCC(F)(F)C(F)(F)F)C(=O)N[C@@H]1C(=O)Nc2ccccc2-c2ccccc21 [RO4929097, 2,2-Dimethyl-N-[(7S)-6-oxo-6,7-dihydro-5H-dibenzo[b,d]azepin-7-yl]-N′-(2,2,3,3,3-pentafluoropropyl)malonamide]
lowest concentration that downregulated Hey1 expression in HUVECs [1]: 2 µM | inhibition of angiogenesis in Notch-expressing HUVECs [2]: effective in inhibiting angiogenesis | number of branch points per field [2]: significantly reduced | network formation by HUVEC [2]: dramatically reduced | effectiveness on HUVEC migration compared with 8 μM DAPT (HUVEC migration; 6 μM): more effective | change of hLEC viability at concentrations less than 20 μM [3]: without significant changes | cytotoxicity at 20 μM [4]: ~30% | effectiveness on hLEC migration compared with 8 μM DAPT (hLEC migration; 6 μM, hLEC): more effective | reduction of migration in hLECs (hLEC migration; at lower concentrations compared to HUVECs): greater than 50%

C[C@H](NC(=O)Cc1cc(F)cc(F)c1)C(=O)N[C@H](C(=O)OC(C)(C)C)c1ccccc1 [DAPT, N-[N-(3,5-difluorophenacetyl-L-alanyl)]-S-phenylglycine t-butyl ester]
lowest concentration that downregulated Hey1 expression in HUVECs [1]: 4 µM | inhibition of angiogenesis in Notch-expressing HUVECs [2]: effective in inhibiting angiogenesis | number of branch points per field [2]: significantly reduced | network formation by HUVEC [2]: dramatically reduced | HUVEC migration reduced to (HUVEC migration; 8 μM, 24 hrs post-scratch): about 35% | reduction of hLEC viability ([3]; 20 μM, hLEC): ~30% | change of hLEC viability at concentrations less than 20 μM [3]: without significant changes | hLEC migration reduced to (hLEC migration; 8 μM, hLEC, 72 hrs post-scratch): about 50%
